This series is described as follows: solvent given as SMILES.
Setting [1] is: in O=P(c1ccccc1)(c1ccccc1)c1ccccc1Oc1ccccc1P(=O)(c1ccccc1)c1ccccc1.

Molecules are shown by their SMILES.

Take `Cc1cc(C)c([B-]2(c3c(C)cc(C)cc3C)[O+]=P(c3ccccc3)(c3ccccc3)c3cc(-c4ccc(C(C)(C)C)cc4)sc3-c3sc(-c4ccc(C(C)(C)C)cc4)cc32)c(C)c1`: the emission maximum (in C1CCOC1) stood at 498 nm.
Take `Cc1cc(C)c(C2=C3C=c4c(c5ccc(C(C)(C)C)cc5c5cc(C(C)(C)C)ccc45)=[N+]3[B-](F)(F)n3c2cc2c4ccc(C(C)(C)C)cc4c4cc(C(C)(C)C)ccc4c23)c(C)c1`: the emission maximum is on record as 707 nm (in C1CCCCC1); 711 nm (in C1CCOC1); 711 nm (in CC#N); 715 nm (in Cc1ccccc1); 715 nm (in ClCCl).
Regarding `CC1=C(c2ccc(N(C)C)cc2)C(C)=[N+]2C1=C(c1c(-c3ccccn3)nc3ccccn13)c1c(C)c(-c3ccc(N(C)C)cc3)c(C)n1[B-]2(F)F`, the emission maximum (in ClCCl) is 722 nm.
Compound `CCCCCCc1cc2/c(=C(\C#N)C(=O)OC)s/c(=c3/s/c(=C(/C#N)C(=O)OC)c4cc(CCCCCC)sc34)c2s1` displayed an emission maximum (in Cc1ccccc1) of 605 nm.
As for `O=C1c2ccccc2C(=O)C1C1C(=O)c2c3ccccc3cc3cc4ccccc4c1c23` (stereo not given), the emission maximum (in C1CCOC1) was determined as 569 nm; the emission maximum (in CC#N) stood at 591 nm; the emission maximum (in CCCCCC) worked out at 538 nm; the emission maximum (in Cc1ccccc1) is on record as 563 nm; the emission maximum (in ClCCl) is 583 nm.
Consider `CCCCCCc1ccc(-n2c3[n+](c4c5ccccc5c5ccccc5c42)[B-](C)(C)c2cc(N(c4ccccc4)c4ccccc4)ccc2-3)cc1`, for which the emission maximum runs as follows: (in C1CCOC1) 435 nm; (in CC#N) 446 nm; (in Cc1ccccc1) 428 nm; (in ClCCl) 437 nm.
As to `CCCCCCN1C(=O)c2cccc3c(-c4ccc(-c5ccc(-c6ccc7c8c(cccc68)C(=O)N(CCCCCC)C7=O)s5)s4)ccc(c23)C1=O`, the emission maximum (in ClC(Cl)Cl) turned out to be 542 nm.
For the compound `c1ccc(N(c2ccccc2)c2ccc(-c3ccc(-c4ccc(-c5ccc(-c6ccc(N(c7ccccc7)c7ccccc7)cc6)s5)c5nsnc45)s3)cc2)cc1`, the emission maximum (in ClC(Cl)Cl) was determined as 690 nm.
With `COC(=O)CC1(C(=O)O)Oc2c(c(C(C)=O)c3c(c2C(C)=O)OCO3)O1`, for the setting “in CC#N”, the emission maximum was 547 nm.
`CCN(CC)c1ccc2cc(/C=C/C3=C4CC/C(=C\c5cc6ccc(N(CC)CC)cc6oc5=O)C4=[O+][B-](F)(F)O3)c(=O)oc2c1`: the emission maximum by setting is: (in C1COCCO1) 675 nm; (in CC#N) 758 nm; (in CC(C)=O) 734 nm; (in CCOC(C)=O) 693 nm; (in CN(C)C=O) 758 nm; (in CS(C)=O) 780 nm. The emission maximum runs as follows: (in Cc1ccccc1) 658 nm; (in ClC(Cl)Cl) 706 nm; (in ClCCl) 730 nm.
Compound `COC(=O)COc1ccc(/C=C/C2=[N+]3C(=C(c4ccc(N5CCCCC5)cc4)c4c(C)cc(C)n4[B-]3(F)F)C(C)=C2)cc1` yielded an emission maximum (in CO) of 581 nm.
In the case of `O=Cc1ccc(N(c2ccc(C=O)cc2)c2ccc(-c3ccc4c(c3)C(=O)c3ccccc3C4=O)cc2)cc1`, the emission maximum is given as 662 nm (in C1CCOC1); 493 nm (in CCCCCC); 654 nm (in CCOC(C)=O); 585 nm (in CCOCC); 558 nm (in Cc1ccccc1); 541 nm (in ClC(Cl)(Cl)Cl). For the same compound, the emission maximum (in ClCCl) came to 685 nm.
With `CS1(C)C(/C=C/C2=C(c3ccc(C(=O)O)cc3)C(=C/C=C3/N(CCCCS(=O)(=O)[O-])c4ccccc4S3(C)C)/CCC2)=[N+](CCCCS(=O)(=O)[O-])c2ccccc21`, for the setting “in CO”, the emission maximum worked out at 813 nm.
In turn, `N#Cc1cc(/C=C/c2ccc(N(c3ccccc3)c3ccccc3)cc2)ccc1/C=C/c1ccc(/C=C/c2ccc(N(c3ccccc3)c3ccccc3)cc2)cc1` displayed an emission maximum (in ClCCl) of 560 nm.
On to `CCn1c(-c2ccc(-c3ccc(-c4ccc(-c5n(CC)c6cc(C)ccc6[n+]5CC)cc4)cc3)cc2)[n+](CC)c2ccc(C)cc21`, for which, for the setting “in O”, the emission maximum is recorded as 397 nm.
On to `COc1ccc(-n2nc(C#N)c(N3CCCC3)n2)cc1`, for which the emission maximum is, setting by setting: (in CC#N) 418 nm; (in CCCCCC) 389 nm; (in CCO) 415 nm; (in CN(C)C=O) 418 nm; (in CO) 416 nm; (in ClC(Cl)Cl) 406 nm.
As to `c1ccc(N(c2ccccc2)c2ccc(-c3ncc(-c4ccc(-c5cnc(-c6ccc(N(c7ccccc7)c7ccccc7)cc6)s5)s4)s3)cc2)cc1`, the emission maximum (in CO) turned out to be 503 nm.
Turning to `c1ccc2c(c1)c1ccccc1n2-c1ccc(-c2ccc(-n3c4ccccc4c4ccccc43)nc2-n2c3ccccc3c3ccccc32)nn1`, the emission maximum by setting is: (in CC#N) 464.96 nm; (in Cc1ccccc1) 423 nm; (in ClCCl) 432.68 nm.
The compound `Cc1cccc(-c2[nH]c(=O)n3c2-c2ccccc2C3=O)c1O` showed an emission maximum (in CC#N) of 480 nm, an emission maximum (in CO) of 496 nm and an emission maximum (in ClCCl) of 473 nm.
Take `CCn1c2ccsc2c2c3nsnc3c3c4sccc4n(CC)c3c21`: the emission maximum is given as 539 nm (in C1CCOC1); 538 nm (in CCOC(C)=O); 573 nm (in CN(C)C=O); 523 nm (in Cc1ccccc1); 565 nm (in ClCCl).
In turn, `c1cc(-c2c3ccccc3c(-c3ccc4ccccc4c3)c3ccccc23)cc(-n2c3ccccc3c3ccccc32)c1` displayed an emission maximum (in ClCCl) of 419 nm.
On to `O=c1[nH]c(=O)c2scc([C@H]3C[C@H](O)[C@@H](CO)O3)c2[nH]1`, for which the emission maximum was found to be 345 nm (in CC#N), 343 nm (in CCOC(C)=O), 351 nm (in CO) and 351 nm (in O).
In the case of `Cc1cc(-n2c3ccccc3c3cc4c(cc32)C2c3ccccc3C4c3ccccc32)ccc1-c1nc(-c2ccccc2)nc(-c2ccccc2)n1`, the emission maximum by setting is: (in Cc1ccccc1) 429 nm; under setting [1], 444 nm.
For `COc1cc(/C=C/C(=O)CC(=O)/C=C/c2ccc(O)c(OC)c2)ccc1O`, the emission maximum is, setting by setting: (in C1CCCCC1) 446 nm; (in CC#N) 538 nm; (in CN(C)C=O) 542 nm; (in CO) 560 nm; (in CS(C)=O) 549 nm; (in c1ccccc1) 464 nm.
In the case of `CCOC(=O)c1ccccc1-c1c2ccc(=[N+](CC)CC)cc-2oc2cc(N(CC)CC)ccc12`, the emission maximum worked out at 581 nm (in CC#N), 571 nm (in CCO), 585 nm (in CN(C)C=O) and 581 nm (in O).
`CCCCN1C(=O)c2cccc3c(OC)ccc(c23)C1=O` displayed an emission maximum (in Cc1ccccc1) of 422 nm.
Take `CC(C)(C)c1cccc2c(O)cccc12`: the emission maximum (in O) is given as 367 nm.
On to `CN1c2cc3nc4cc(Cl)c(Cl)cc4nc3cc2N(C)C1(C)C`, for which, under “in CCO”, the emission maximum is recorded as 497 nm.
Where the note is “in ClCCl”, `c1ccc(B2Nc3cc4c(cc3-c3occc32)NB(c2ccccc2)c2ccoc2-4)cc1` gave an emission maximum of 393 nm.
Regarding `Cc1nc2c(ccc3c2sc(/C=C/c2ccc(-n4c5ccccc5c5ccccc54)cc2)[n+]3C)s1`, the emission maximum reads like this: (in CO) 607 nm; (in ClC(Cl)Cl) 638 nm.
`CCCCCCCCN1c2ccc(C#Cc3cc(C(F)(F)F)cc(C(F)(F)F)c3)cc2Sc2cc(C=O)ccc21`: the emission maximum is 514 nm (in C1CCOC1); 532 nm (in CC#N); 491 nm (in CCCCCC); 517 nm (in CO); 540 nm (in CS(C)=O); 508 nm (in Cc1ccccc1). The emission maximum (in ClC(Cl)Cl) was found to be 529 nm.
Regarding `O=C(c1ccc(-n2c3ccccc3c3cc(-n4c5ccccc5c5ccccc54)ccc32)cc1)c1ccc(-n2c3ccccc3c3cc(-n4c5ccccc5c5ccccc54)ccc32)cn1`, the emission maximum was 462 nm (in Cc1ccccc1) and 475 nm under setting [1].
`COc1ccc2c(-c3nc(-c4ccccc4F)no3)cc(=O)oc2c1` displayed an emission maximum (in CCO) of 464 nm and an emission maximum (in ClC(Cl)Cl) of 453 nm.
Consider `COc1ccc2c3c(c4ccc(OC)cc4c2c1)=[N+]1C(=C(c2c(C)cc(C)cc2C)c2cc4c5ccc(OC)cc5c5cc(OC)ccc5c4n2[B-]1(F)F)C=3`, for which the emission maximum was 700 nm (in C1CCCCC1); 712 nm (in C1CCOC1); 712 nm (in CC#N); 712 nm (in Cc1ccccc1); 711 nm (in ClCCl).
Regarding `CN(C)c1ccc2c(C(=O)NCc3ccccc3)cc(C(=O)[O-])nc2c1`, the emission maximum (in CCO) worked out at 603 nm.
Where the note is “in Cc1ccccc1”, `O=C(c1ccccc1)c1ccc(-n2c3ccccc3c3c2c2ccccc2n3-c2ccccc2)cc1` gave an emission maximum of 520 nm.
As for `C=CCOc1ccc(-c2nc3cc(C(NC(=O)OC(C)(C)C)C(=O)OC)ccc3o2)cc1` (stereo not given), the emission maximum is, setting by setting: (in CC1CCCCC1) 329 nm; (in CC#N) 333 nm; (in CO) 353 nm.
For `N#Cc1ncc(-c2c3ccccc3c(-c3cnc(C#N)nc3)c3ccccc23)cn1`, the emission maximum (in CCO) was 520 nm and the emission maximum (in ClCCl) turned out to be 464 nm.
Turning to `C[n+]1ccc(/C=C/c2ccc(N(c3ccccc3)c3ccc(/C=C/c4cc[n+](C)cc4)cc3)cc2)cc1`, the emission maximum by setting is: (in ClCCl) 502 nm; (in O) 656 nm; (in OCC(O)CO) 649 nm.
For the compound `Cn1nc(-c2ccccc2)c2nc3cc(F)ccc3nc21`, the emission maximum (in C1CCCCC1) was found to be 486 nm, the emission maximum (in C1CCOC1) is 520 nm and the emission maximum (in CC#N) is listed as 535 nm.

These data come from the Deep4Chem optical property database.
